Measured values taken from patent US20060020110A1, “Synthetic peptides that bind to the hepatitis B virus core and E antigens” (priority 2000, published 2006).

Legend:
[1] = test system: B cell - mediated antigen presentation of HBcAg to experienced T cells; test: Inhibition of B cell-mediated antigen presentation of HBcAg to experienced T cells; type: cell-based, Balb/c mice
Protocol: A characterization assay that was used to evaluate the ability of a binding partner to modulate a host immune system response to HBV was conducted as follows. Groups of Balb/c mice were immunized subcutaneously with 20 μg HBcAg. Ten days later, draining lymph nodes were harvested and experienced CD4^+ T cells were purified using anti-CD4 coated magnetic beads (Dynal A S, Oslo, Norway) according to the manufacturers instructions. Naïve B cells were obtained from syngeneic mice, which had not been immunized. These B cells were used as antigen presenting cells in the characterization assay.
The ability of the different mAbs and peptides to block B cell uptake and antigen presentation of HBcAg-peptides to HBcAg-specific CD4+ T cells was then tested in vitro. The cell populations were mixed at a B/T cell ratio of 1:5 and added at a final concentration of approximately 2.5×10^5 to 5.0×10^5 cells per well in a 96 well microplate. Approximately, 20 μg of HBcAg was preincubated with the binding partner. The binding partner mixtures were then added to the cells and the plates were incubated for 26 to 96 hours at 37° C. The effect of the binding partners on T cell proliferation was determined by monitoring [^3H] thymidine incorporation.

HBeAg = target: T1, HBeAg (Hepatitis B virus genotype D subtype ayw, UniProt P0C573); test: Redirection of HSV gG2 mAb to HBeAg on solid phase by fusion peptide in solution; type: binding
T1 construct: containing nine residues of pre-core and the 150 first residues of HBcAg; made in house
From the text: (§1) ID. […] The specificity exchangers provided in SEQ. ID. […] Similarly, the specificity exchangers provided in SEQ. ID.

HBcAg [2] = target: T2, HBcAg (Hepatitis B virus genotype D subtype ayw, UniProt P03146)
Protocol: Accordingly, the assay was conducted by mixing the antibody to be tested with the appropriate antigen and allowing binding to occur overnight. Subsequently, rabbit complement, which is consumed if the antibody binds the antigen and the complement, was added. To determine the amount of residual complement in the mixture, sheep erythrocytes and an antibody to sheep erythrocytes was added.

HBcAg [3] = target: T2, HBcAg; remark: listed apart in the source
Protocol: To evaluate the efficacy of the specificity exchangers described above, several binding assays using a mAb specific for HSV gG2 were conducted. In one assay, the various specificity exchangers were coated onto microtiterplates and were bound with the mAb specific for HSV gG2. […] ID. […] In another assay, HBcAg was coated onto microtiter plates, specificity exchanger was added (20 μg/well), and the binding of the mAb specific for HSV gG2 was determined. […] ID. […] In another binding assay, HBeAg was coated onto microtiter plates, specificity exchanger was added (20 μg/well), and the binding of the mAb specific for HSV gG2 was determined. […] ID. […] The characterization assays used to evaluate binding partners can also be used and/or modified for the analysis of the specificity exchangers.

mAb specific for HSV gG2 = test: gG2 mAb binding to fusion peptide on solid phase
From the text: as §1

serum HBeAg = target: T3, serum HBeAg (Hepatitis B virus genotype D subtype ayw, UniProt P0C573); test: In vivo aggregation of serum HBeAg in HBeAg-transgenic mice; conditions: second group of experiments, i.p., final volume 0.5 ml
T3 construct: two HBeAg-transgenic mice; from tissue; host or cells: serum of HBeAg-transgenic mice (from Dr. David R Milich, The Scripps Research Institute)
Protocol: By using an animal model of HBV infection, the therapeutic efficacy of a specificity exchanger directed to HBV was determined. In a first group of experiments, two HBeAg-transgenic mice (obtained from Dr. David R Milich, The Scripps Research Institute, La Jolla, Calif.) were injected ip. with 500 μl of undiluted hybridoma supernatants. The mice were then bled on day zero, two, six and nine post-injection. Sera were then tested for the change in serum HBeAg levels as determined by EIA (Sorin Biomedica, Saluggia, Italy).

[4] = fusion peptide in solution 20 μg/well
[5] = specificity exchanger 20 μg/well

T2 sequence (P03146 whole entry): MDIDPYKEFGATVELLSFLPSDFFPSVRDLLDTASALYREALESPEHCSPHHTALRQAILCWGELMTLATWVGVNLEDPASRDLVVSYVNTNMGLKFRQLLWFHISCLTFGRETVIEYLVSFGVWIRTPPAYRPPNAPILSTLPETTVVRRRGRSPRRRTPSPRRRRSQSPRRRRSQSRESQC
T3 sequence (P0C573 20-183): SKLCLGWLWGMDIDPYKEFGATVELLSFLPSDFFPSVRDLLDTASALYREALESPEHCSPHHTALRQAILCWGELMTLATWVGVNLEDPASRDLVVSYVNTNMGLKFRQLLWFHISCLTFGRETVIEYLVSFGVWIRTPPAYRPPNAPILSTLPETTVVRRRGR
T1 sequence (P0C573 21-179): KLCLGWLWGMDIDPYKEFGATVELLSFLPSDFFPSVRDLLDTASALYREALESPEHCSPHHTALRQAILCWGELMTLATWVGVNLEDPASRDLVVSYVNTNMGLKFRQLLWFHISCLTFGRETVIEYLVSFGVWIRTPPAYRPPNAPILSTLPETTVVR

VKLSCKASGYIFTSHRGGPEE [SEQ. ID. No. 74]
Inhibition of B cell mediated antigen presentation of HBcAg to specific CD4+ T cells (in words) [1]: inhibited B cell mediated antigen presentation | cpm ([3H] thymidine incorporation, T cell proliferation) ([1]; T + B cells, 20 μg HBcAg preincubated with inhibitor, positive control 573, background 110): 345 cpm | % inhibition of APC ([1]; T + B cells, 20 μg HBcAg, calculated from cpm versus positive control and background proliferation): 49% | gG2 mAb binding to indicated antigen on solid phase: HBeAg (HBeAg; [4]): 1.727 | Binding to immobilized HBeAg allowing binding of HSV gG2 mAb (in words) (HBeAg; [5]): appreciably bound the immobilized HBeAg | Complement binding of mAb-specificity exchanger-HBcAg complex (in words) (HBcAg [2]; HSV mAb and specificity exchanger at equimolar ratios): able to bind complement | Ability to inhibit binding of mAb 4-2 to HBcAg (in words) (HBcAg [2]; complement binding assay): appreciably inhibited the binding of mAb 4-2 to HBcAg | Ability to inhibit binding of mAb 9C8 to HBcAg (in words) (HBcAg [2]; complement binding assay): unable to compete away bound mAb 9C8 | gG2 mAb binding to indicated antigen on solid phase: HBcAg (HBcAg [3]; [4]): 1.462 | Binding to immobilized HBcAg allowing binding of HSV gG2 mAb (in words) (HBcAg [3]; [5]): appreciably bound the immobilized HBcAg | gG2 mAb binding to indicated antigen on solid phase: fusion peptide (mAb specific for HSV gG2; no addition of fusion peptide in solution): 0.884 | Binding of mAb specific for HSV gG2 to coated specificity exchanger (in words) (mAb specific for HSV gG2; specificity exchanger coated onto microtiterplates): appreciably bound the mAb | Fold change in serum HBeAg levels as determined by EIA in HBeAg-Tg mice (serum HBeAg; day 0 from injection): 1 | Fold change in serum HBeAg levels as determined by EIA in HBeAg-Tg mice (serum HBeAg; day 1 from injection): 1.5 | Fold change in serum HBeAg levels as determined by EIA in HBeAg-Tg mice (serum HBeAg; day 3 from injection): 2.3 | Fold change in serum HBeAg levels as determined by EIA in HBeAg-Tg mice (serum HBeAg; day 6 from injection): 2.3 | Fold change in serum HBeAg levels as determined by EIA in HBeAg-Tg mice (serum HBeAg; day 9 from injection): 3.3
